# Test results taken from EP1157000B1 (Warner-Lambert Company LLC, priority 1999, dated 2001).
# What was measured:
# BCATm = target: T1, BCATm (Homo sapiens, UniProt O15382); conditions: cited from earlier work
# T1 sequence (O15382 28-392): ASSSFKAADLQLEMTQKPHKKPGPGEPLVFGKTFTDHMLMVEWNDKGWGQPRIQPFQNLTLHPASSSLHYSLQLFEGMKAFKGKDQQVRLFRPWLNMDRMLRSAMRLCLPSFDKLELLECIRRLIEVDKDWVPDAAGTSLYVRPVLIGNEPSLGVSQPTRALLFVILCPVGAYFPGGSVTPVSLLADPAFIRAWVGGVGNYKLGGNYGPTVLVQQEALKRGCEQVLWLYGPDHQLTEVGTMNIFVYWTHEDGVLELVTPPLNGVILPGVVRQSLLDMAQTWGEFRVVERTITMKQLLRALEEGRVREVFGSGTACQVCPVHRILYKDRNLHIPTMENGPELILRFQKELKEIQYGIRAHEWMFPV
# BCATc = target: T2, BCATc (Homo sapiens, UniProt P54687); conditions: cited from earlier work
# T2 sequence (P54687 1-386): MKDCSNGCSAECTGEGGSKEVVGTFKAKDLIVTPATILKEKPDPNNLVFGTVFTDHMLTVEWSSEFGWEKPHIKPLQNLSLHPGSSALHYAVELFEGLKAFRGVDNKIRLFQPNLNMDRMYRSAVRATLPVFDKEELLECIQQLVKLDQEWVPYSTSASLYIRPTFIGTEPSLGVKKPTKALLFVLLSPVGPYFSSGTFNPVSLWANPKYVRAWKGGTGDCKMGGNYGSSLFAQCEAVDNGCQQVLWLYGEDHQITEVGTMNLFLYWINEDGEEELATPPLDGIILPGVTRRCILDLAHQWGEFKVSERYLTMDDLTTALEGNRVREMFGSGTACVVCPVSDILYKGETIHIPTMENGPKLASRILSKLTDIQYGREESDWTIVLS
# [1] = system: freshly dissected rat retinas; test: Synthesis of leucine in freshly dissected retinas; type: cell-based; conditions: data not shown
# ex vivo rat retinas = test: CO2 fixation: H14CO3 incorporation into metabolites by ex vivo retinas; type: cell-based; conditions: for TCA cycle / Asp / Gln / Glu / Total / Lact: half retinas, 37°C, 25 mM H14CO3, 0.2 mM pyruvate, BCAA 0.2 mM each; for Lact: lactate peak includes pyruvate
# Protocol: Sprague Dawley rats (200-400g) were used for all experiments. Rats were housed under a 12 hour light/dark cycle, and fed and watered ad libidum. After anaesthetizing the rats with-nembutal (IP), eyes were enucleated and retinas dissected in ice-cold buffer.
# Freshly isolated half-retinas were preincubated at 37°C for 3 minutes in buffer A (pH 7.4) containing 118 mM NaCl, 4.7 mM KCl, 2.5 mM CaCl, 1.2 mM KH2PO4, 1.17 mM MgSO4, 20 mM HEPES, 5 mM glucose, 0.05 mM NH4Cl and 25 mM NaH^14CO3. Pyruvate (either 0.2 or 5mM) was also included in the buffer. 1 ml buffer as well as the gas phase within 20 ml vials were equilibrated with 95% O2, 5% CO2. Incubations were initiated by addition of 10 µCi/ml H^14CO3. The vessels were then immediately closed to the atmosphere. Most incubations continued for 20 minutes, although in some preliminary studies, times were varied from 10-60 minutes. Reactions were stopped by removing the half retinas from the buffer and placing them in 2% perchloric acid. The buffer was separately acidified with perchloric acid (final concentration 2%) and unreacted ^14CO2 was allowed to diffuse out of the acidified samples.
# The total amount of product (non-volatile carbon 14 metabolites) was determined by measuring the radioactivity in aliquots of the medium and tissue samples. Metabolites in the extracts were separated by Dowex-1 acetate chromatography as previously described: Williamson, J.R., and Corkey, B. (1969) "Methods in Enzymology", Vol, 13, ed. Lowenstein, J.M. (Academic Press) pp 434-513, and quantified by scintillation counting. In most instances, individual metabolite carbon 14 data is reported as the sum of the radioactivity in the medium plus tissue extracts. Complete quantification of ^14C-metabolite amounts in both the retina and in the medium can be found below in Tables I and II.
# The chromatographic procedure employed in this example separates glutamine, glutamate, aspartate, and lactic acid. The citric acid cycle intermediates remain on the Dowex columns and are estimated as the difference between the total counts in the sample and the counts that are eluted. Evidence of the validity of this procedure has been reported previously. Before subjecting samples to chromatography, ^14C-pyruvic acid in the samples was converted stoichiometrically to lactate by treating the samples with excess NADH and lactate dehydrogenase. Therefore the single lactate peak reported contains all carbon 14 in both lactate and pyruvate. To determine specific activity of glutamate and glutamine in the retinal samples, the mass amount of the glutamate was measured fluorometrically using a standard enzymatic procedure: Patel, M.S. (1989) in Neuromethods: Carbohydrate and Energy Metabolism, Vol II, eds. Boulton, A.A and Baker G.D. (The Humana Press, Inc.) pp 309-340. The mass amount of glutamine was measured after chromatographic separation from glutamate followed by a luminometric determination previously described. ATP and creatine phosphate were measured fluorometrically using an enzymatic assay.
# Data are reported in text and figures by determining the dpm/mg in a particular metabolite and dividing by the specific activity of medium HCO3. Therefore all data are reported as nmoles of H^14CO3/mg protein for any given metabolite.
# [2] = 0, 0.2, 1, or 5 mM GBP, 20 minutes, Figure 5
# [3] = compartment in (retina), 20 min, GBP 1 mM
# [4] = compartment out (medium), 20 min, GBP 1 mM
# [5] = sum of medium plus tissue, 20 min, GBP 1 mM
smiles,measurement,setting,value
"NCC1(CC(=O)O)CCCCC1 [GBP, gabapentin]",inhibition of BCATm,BCATm,not
same,inhibition of BCATc,BCATc,inhibits
same,synthesis of leucine,[1],inhibits
same,extent of inhibition of the synthesis of ^14C-glutamate plus ^14C-glutamine on increasing the concentration over 1 mM,ex vivo rat retinas; [2],did not significantly increase
same,"formation of citric acid cycle intermediates, lactate and pyruvate",ex vivo rat retinas; [2],no influence
same,formation of ^14C-glutamate plus ^14C-glutamine,"ex vivo rat retinas; 1 mM GBP plus 200 µM each of leucine, isoleucine and valine",89 % of control
same,formation of ^14C-glutamate plus ^14C-glutamine,"ex vivo rat retinas; 1 mM GBP plus 200 µM each of leucine, isoleucine and valine, p<0.01 versus GBP alone",2.84 ± 1.15 nmol/mg
same,formation of ^14C-glutamate plus ^14C-glutamine,"ex vivo rat retinas; 1 mM GBP, 20 min, 0.2 mM pyruvate, p<0.001",71 % of control
same,formation of ^14C-glutamate plus ^14C-glutamine,"ex vivo rat retinas; 1 mM GBP, 20 min, 0.2 mM pyruvate, control 3.18 ± 0.12",2.26 ± 0.05 nmol/mg
same,incorporation of carbon 14 into lactate and citric acid cycle intermediates,"ex vivo rat retinas; 1 mM GBP, control 1.93 ± .06, increase not significant",2.12 ± 0.13 nmoles of H^14CO3/mg protein
same,H^14CO3 incorporation into lactate and citric acid cycle intermediates,ex vivo rat retinas; GBP 1 mM,without slowing
same,Inhibition of de novo glutamate synthesis after addition of BCAA,ex vivo rat retinas; GBP 1 mM plus 0.6 mM BCAA,reversed
same,inhibition at 1000 µM,"ex vivo rat retinas; Rattus norvegicus, GBP 1 mM, read-out: inhibited synthesis of ^14C-glutamate plus ^14C-glutamine from H^14CO3",31%
same,TCA cycle,"ex vivo rat retinas; compartment in (retina), estimated as total counts minus eluted counts, 20 min, GBP 1 mM",1.514 ± 0.103 nmoles of H^14CO3/mg protein
same,Asp,ex vivo rat retinas; [3],0.549 ± 0.019 nmoles of H^14CO3/mg protein
same,Gln,ex vivo rat retinas; [3],0.389 ± 0.026 nmoles of H^14CO3/mg protein
same,Glu,ex vivo rat retinas; [3],1.324 ± 0.025 nmoles of H^14CO3/mg protein
same,Total,ex vivo rat retinas; [3],3.902 ± 0.122 nmoles of H^14CO3/mg protein
same,Lact,ex vivo rat retinas; [3],0.089 ± 0.006 nmoles of H^14CO3/mg protein
same,Asp,ex vivo rat retinas; [4],0.035 ± 0.003 nmoles of H^14CO3/mg protein
same,Gln,ex vivo rat retinas; [4],0.545 ± 0.024 nmoles of H^14CO3/mg protein
same,Glu,ex vivo rat retinas; [4],0.008 ± 0.002 nmoles of H^14CO3/mg protein
same,TCA cycle,ex vivo rat retinas; [4],0 nmoles of H^14CO3/mg protein
same,Total,ex vivo rat retinas; [4],1.066 ± 0.028 nmoles of H^14CO3/mg protein
same,Lact,ex vivo rat retinas; [4],0.516 ± 0.030 nmoles of H^14CO3/mg protein
same,Asp,ex vivo rat retinas; [5],0.584 ± 0.022 nmoles of H^14CO3/mg protein
same,Gln,ex vivo rat retinas; [5],0.934 ± 0.036 nmoles of H^14CO3/mg protein
same,Glu,ex vivo rat retinas; [5],1.332 ± 0.025 nmoles of H^14CO3/mg protein
same,TCA cycle,ex vivo rat retinas; [5],1.514 ± 0.103 nmoles of H^14CO3/mg protein
same,Total,ex vivo rat retinas; [5],4.968 ± 0.028 nmoles of H^14CO3/mg protein
same,Lact,ex vivo rat retinas; [5],0.605 ± 0.028 nmoles of H^14CO3/mg protein
